Source: the METLIN SMRT retention time set (Domingo-Almenara et al. 2019)

assay: gradient 5% acetonitrile 3 min, to 50% in 2 min, to 85% in 15 min, held 3 min, 100 µL/min; settings: column: Zorbax Extend-C18 2.1 x 50 mm; eluents: water / acetonitrile, 0.1% formic acid
Outline: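 The system's dead and dwell volumes were 40 μL and 900 μL, with a Zorbax Extend-C18 column (2.1 × 50 mm, 1.8 μm) run at 100 μL/min in water and acetonitrile containing 0.1% formic acid each. Pure standards were analyzed in mixtures of ~100 molecules by HPLC–quadrupole time-of-flight mass spectrometry in positive and negative ionization mode. Retention time was assigned from computationally picked, manually inspected adduct peaks.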

Row | SMILES | RP-LC retention time [s]
1 | CC(C)CC(=O)Nc1ccc(S(=O)(=O)N2CCC(c3ccncc3)CC2)cc1 | 616
2 | O=C(CN1C(=O)C2CCCCN2c2ccc(C(=O)N3CCCCC3)cc21)NCc1ccco1 (centres undefined) | 784
3 | O=C(Cn1nc(C2CC2)cc1C(=O)N1CCCC1)NCc1ccc(F)cc1 | 738
4 | O=C1CCCN1CCCN1C(=O)[C@H]2CN(Cc3ccc(F)c(Cl)c3)C[C@H]2C1=O | 599
5 | COc1ccc(OC)c(CNC(=O)C2CCCN(c3ncnc4c3oc3ccccc34)C2)c1 (centres undefined) | 761
6 | Cc1cc(N2CCOCC2)nc(N2CCN(S(=O)(=O)c3ccc4c(c3)Cc3ccccc3-4)CC2)n1 | 813
7 | CC1CCc2onc(C(=O)N3CCN(c4ccccc4)CC3)c2C1 (centres undefined) | 1020
8 | Cc1ccc(C)c(N2CCN(C(=O)C3CCCCN3S(=O)(=O)c3ccc(F)cc3)CC2)c1 (centres undefined) | 1250
9 | Cn1c(C(=O)NCc2cc(F)ccc2F)cc2ccncc21 | 622
10 | COc1ccc(C2NCCc3c2[nH]c2ccccc32)cc1O (centres undefined) | 582
11 | CCn1nnc2ccc(-c3noc(-c4ccc(C)cc4)n3)cc21 | 1140
12 | Fc1ccc(Cn2cccc2-c2nc(-c3cccnc3)no2)cc1 | 1100
13 | Cc1ccc(C(=O)N2CCC(c3nc(-c4ccccc4)no3)C2)s1 (centres undefined) | 949
14 | CC(C)NC(=O)C1CCCN(c2nc3ncn(CC(=O)Nc4cccc(C(C)C)c4)c(=O)c3s2)C1 (centres undefined) | 791
15 | COc1cc(CN2CC(c3nc(-c4ccsc4)nn3C)C2)ccc1OC(C)C | 684
16 | CCC1CCCCN1CCNC(=O)CCc1cc2ccc(C)cc2[nH]c1=O (centres undefined) | 621
17 | O=C(Nc1cccnc1N1CCOCC1)C1CCC1 | 623
18 | CCOCCCNC(=O)C1Cn2cccc2C(=O)N1C (centres undefined) | 597
19 | CCN(CC)S(=O)(=O)c1ccc2c(c1)cc(C(=O)NCCc1c[nH]c3ccc(OC)cc13)n2C | 964
20 | CC(C)c1nncn1C1CCN(S(=O)(=O)c2ccc(C(F)(F)F)cc2)CC1 | 791

Row | SMILES | RP-LC retention time [s]
21 | CN(C)C(=O)c1csc(S(=O)(=O)N2CCC(C(=O)Nc3ccccc3F)CC2)c1 | 770
22 | Cc1ccc(Cl)c(NC(=O)c2[nH]c3cc(C)sc3c2CN2CCOCC2)c1 | 724
23 | CN1C(=O)[C@H]2CN(Cc3ccccc3Cl)C[C@H]2C1=O | 600
24 | Nc1c(C(=O)NCC2CC2)nsc1C(=O)O | 770
25 | COc1ccc(CNC2=NCCNC23CCN(S(=O)(=O)c2ccc(C(C)(C)C)cc2)CC3)cc1 | 844
26 | Cn1cc(S(=O)(=O)N2CCC(C(=O)Nc3nccs3)CC2)cc1C(=O)N1CCCC1 | 662
27 | CCN1CCC(N(Cc2cccs2)C(=O)Nc2ccc(OC)c(OC)c2)CC1 | 604
28 | COc1ccc(C(=O)N2CCC3(C2)C(=O)Nc2ccccc23)cc1OC (centres undefined) | 657
29 | CCN(CC)c1nc(C(=O)N2CCN(c3ccccn3)CC2)nc2nc(C)cc(C)c12 | 570
30 | CCS(=O)(=O)N1CC(F)(F)C[C@H]1c1nc(-c2cccnc2)no1 | 743
31 | COC(=O)c1c(NC(=O)C2COc3ccccc3O2)sc2c1CCN(C(=O)OC)C2 (centres undefined) | 963
32 | CN1CCN(c2ncc3c(=O)n(CC4CCCO4)ccc3n2)CC1 (centres undefined) | 567
33 | CCOC(=O)c1c(C)[nH]c(C(=O)N2CCCC(C(=O)NCCc3ccco3)C2)c1C (centres undefined) | 781
34 | Cc1cc(CNC(=O)c2cnccn2)no1 | 577
35 | Cn1ccnc1C(=O)N1CC(n2cc(C(=O)N3CCOCC3)nn2)C1 | 581
36 | O=C(C1CCN(S(=O)(=O)c2ccc(-c3noc(C4CC4)n3)cc2)CC1)N1CCc2ccccc2C1 | 1050
37 | Cc1sc2ccn(Cc3ccc(F)cc3)c(=O)c2c1C(=O)N1CCOCC1 | 713
38 | Cc1cc(N2CCN(S(=O)(=O)c3cccc(C(F)(F)F)c3)CC2)nc(NC2CCCCC2)n1 | 890
39 | Cc1ccc2[nH]cc(CCNC(=O)c3cccc(NC(=O)c4nnc(C5CC5)s4)c3)c2c1 | 932
40 | CS(=O)(=O)N1CCC(OC2CCN(C(=O)NCc3ccccc3)CC2)CC1 | 704

Row | SMILES | RP-LC retention time [s]
41 | Cc1oc(-c2ccc(C(=O)NCCN(C)C)cc2)nc1CN1CCc2ccccc21 | 694
42 | CCCc1ccc(S(=O)(=O)N2CCC3(CC2)NCCCN=C3NC2CCCC2)cc1 | 857
43 | C[C@H](NC(=O)[C@H](Cc1ccccc1)NC(=O)OCc1ccccc1)C(=O)CF | 824
44 | CC(C)CNC(=O)c1ccn[nH]1 | 604
45 | CN(C)CCNC(=O)c1cn(C)nc1S(=O)(=O)N1CCN(c2ccc(Cl)cc2)CC1 | 672
46 | O=C1C2N=NN(Cc3nc(-c4cccc(Br)c4)no3)C2C(=O)N1c1ccc2c(c1)CCC2 (centres undefined) | 1130
47 | CCOCC(=O)N1CCc2nc(N3CCN(C)CC3)sc2C1 | 557
48 | CCc1nc2c(=O)n(CC(=O)N3CCN(c4cc(C)ccc4C)CC3)nc(C)c2s1 | 911
49 | CCC[C@H](Nc1nc(-c2ccc(NC(=O)NCC)c(OC)c2)ncc1C)c1cccnc1 | 666
50 | CC(C)n1nc(CNC(=O)C2CCC2)c2ccccc21 | 812
51 | CCN1C(=O)Cc2ccccc2C1C(=O)NCc1cc(F)ccc1F (centres undefined) | 753
52 | CCc1ccc2nc(Nc3nc(C)c4c(n3)CCCC4)nc(C)c2c1 | 754
53 | CCNC(=O)C1CCCN(c2nc3ncn(CC(=O)Nc4cc(F)ccc4F)c(=O)c3s2)C1 (centres undefined) | 685
54 | CCOC(=O)c1c(C)[nH]c(C(=O)N2CCCC(C(=O)NCCc3c[nH]c4ccccc34)C2)c1C (centres undefined) | 808
55 | O=C(Nc1ccc(F)cc1F)c1cc2n(n1)CCCC2 | 912
56 | CCc1nc(-c2cc(S(=O)(=O)N3CCC(C(=O)N(CC)CC)CC3)c(C)s2)no1 | 960
57 | Cc1nc(Cn2cccc2C(=O)N2CCN(c3cccc(Cl)c3)CC2)no1 | 974
58 | O=C(NCc1ccc2c(c1)OCO2)C1CCN(c2cnc3nccnc3c2)CC1 | 659
59 | Cc1cccc(-c2nnc(CC(=O)NC3CCCCC3)o2)c1 | 817

Next, values leading:

Row | RP-LC retention time [s] | SMILES
60 | 1020 | O=C(Nc1ccccc1Br)N1CCc2nc(-c3ccc(F)cc3)ncc2C1
61 | 740 | CCN(CC)C(=O)Cn1c(=O)c2cnc(-c3ccc(Cl)cc3)nc2n(CC)c1=O
62 | 728 | CCN1C(=O)c2cccnc2Sc2cc(CNC(=O)Cc3ccsc3)ccc21
63 | 790 | CCN1C(=O)CCc2cc(NS(=O)(=O)c3ccccc3C(=O)OC)ccc21
64 | 878 | CCCn1cc(C(=O)NCC(C)C)c2nn(-c3ccccc3)c(=O)c-2c1
65 | 692 | CSc1ccc(CNC(=O)c2cn3ccccc3n2)cc1
66 | 842 | Cc1ccc(C)c(NC(=O)NC2CCN(c3ccc(F)cc3)C2=O)c1 (centres undefined)
67 | 849 | O=C(Nc1ccc(Br)cc1)NC1CCN(c2ccccc2)C1=O (centres undefined)
68 | 914 | CCOC(=O)c1ccccc1NC(=O)CSc1cc(N2CCCC2)ncn1
69 | 724 | CCCC(=O)Nc1ccc2c(c1)Sc1ncccc1C(=O)N2CC
70 | 663 | CC(=O)Nc1ccc(-n2cnc(C(=O)NCc3ccccc3)c2)nc1
71 | 709 | Cc1cc(NC(=O)CN2C(=O)c3ccccc3C2=O)n(-c2ccccc2)n1
72 | 990 | COc1ccc(-c2cc3c(=O)n(Cc4nc(-c5ccccc5OC)oc4C)ccn3n2)cc1OC
73 | 830 | Cc1ccc(-n2nc(N3CCN(C(=O)c4cccs4)CC3)ccc2=O)cc1C
74 | 604 | Cn1c(=O)c(C(=O)N2CCN(c3ccccn3)CC2)nn(-c2ccccc2)c1=O
75 | 1040 | N#Cc1cccc(NC(=O)c2cccn2Cc2noc(-c3ccccc3)n2)c1
76 | 987 | CCn1cc(-c2nc(C(=O)Nc3ccc(F)c(C)c3)cs2)c2cccnc21
77 | 724 | COc1ccccc1NC(=O)Cc1nnc(-c2ccc3ncccc3c2)o1
78 | 1160 | COc1ccc(NC(=O)C2CCCN(c3nc4c(s3)c(C)nn4-c3ccccc3)C2)c(OC)c1 (centres undefined)
79 | 956 | O=C(Cn1c(=O)cc(-c2nc(C3CC3)no2)c2ccccc21)NCc1ccccc1Cl
80 | 842 | CCCn1c(=O)c2cc(C(=O)NCc3ccc(N4CCOCC4)cc3)nn2c2ccccc21
81 | 817 | Cn1ncc2c3ccccc3n(CCCC(=O)NCc3cccs3)c2c1=O
82 | 670 | CN1C(=O)c2[nH]nc(-c3ccccc3)c2C1c1ccc(O)cc1 (centres undefined)
83 | 832 | Cc1cccc(NC(=O)Cn2c(=O)n(-c3ccccc3)c3ncccc32)c1C
84 | 727 | COc1ccc(Cl)cc1NC(=O)Cn1c(C)nc(-c2ccccn2)cc1=O
85 | 819 | O=C1CC(C(=O)N2CCN(c3ccccc3)CC2)CN1CCc1c[nH]c2ccc(F)cc12 (centres undefined)
86 | 766 | CCOc1ccccc1NC(=O)Cn1nc2n(c1=O)CCCCC2
87 | 823 | Cc1oc(-c2ccc(NC(=O)c3ccsc3)cc2)nc1Cn1cccn1
88 | 756 | O=C(NCc1ccco1)c1cccc(Nc2c(-c3ccccc3)nc3cnccn23)c1
89 | 1030 | Cc1sc(NC(=O)CSc2nnc3c4ccccc4n(C)c3n2)nc1-c1ccccc1
